Measured values reported in patent US5212158A, “Derivatives of L-proline, their preparation and their biological uses” (Inorgan SA Recherche & Developpement Pharmaceutiques, CAS, priority 1987, dated 1993).
Residues, ends and D or L forms follow the SMILES beside them. *: point of attachment. PhAc = O=C(Cc1ccccc1)*; Bz = O=C(c1ccccc1)*

Tests used:
GH = test: Effect on adenohypophyseal hormone secretions: GH radioimmunoassay; assay type: in vivo, rat; settings: male rats; 32 mg/kg IP; plasma 30 min later
Protocol: (§1) Male rats received 2 mg/kg, 8 mg/kg, or 32 mg/kg IP of product of example 1 in arabic gum (2.5%) and 32 mg/kg IP of products of examples 2 and 3. Rats were killed 30 min. later by decapitation and plasma samples were aliquoted and kept frozen (-20° C.) until assays. Before the experiments, the rats have been accustomed to handling to avoid any stress effect.
(§2) Hormones were assayed using radioimmunoassays for prolactin, GH and TSH.

prolactin = test: Effect on adenohypophyseal hormone secretions: prolactin radioimmunoassay; assay type: in vivo, rat; settings: male rats, plasma 30 min later; for activity on prolactin levels: 32 mg/kg IP
Protocol: as §1, §2

mouse = test: Test of passive avoidance: amnesia induced by scopolamine; assay type: in vivo; settings: for activity in the scopolamine amnesia test: at 2, 8 and 32 mg/kg; for activity in the scopolamine amnesia test / dose at which activity is significant / active dose, scopolamine amnesia test: oral administration; for dose with significant/antagonistic effect on scopolamine amnesia: i.p. route 60 minutes before Assay 1
Protocol: The procedure described by Glick and Zimmerberg in Behavioural Biology, 1972, 7: 245-254 and by Lenegre et al in Pharmacol. Biochem. Behav., 29 (3) 1988 were used.
The mouse is introduced into the illuminated compartment of a two-compartment box. When it crosses into the darker component its paws receive electric shocks of 0.3 mA until it returns into the illuminated compartment (Assay 1).
When the mouse is returned to the box 24 hours later (Assay 2), it avoids going into the darker component. An i.p. injection of scopolamine (1 mg.kg^-1) 30 minutes before Assay 1 reduces the memory of this experience as is reflected in the delay of the reaction of the mouse before it crosses to the darker compartment in Assay 2. […]
Piracetam was used as reference substance.

TSH = test: Effect on adenohypophyseal hormone secretions: TSH radioimmunoassay; assay type: in vivo, rat; settings: male rats, plasma 30 min later; for activity on TSH levels: 32 mg/kg IP
Protocol: as §1, §2

[1] = Solubility of the product obtained; assay type: physicochemical
Source text: The product obtained was insoluble in water and is soluble to the extent of at least 1% to 5% in organic solvents such as methanol. chloroform, ethyl acetate and dimethylformamide.

[2] = tested on: male mice of the NMRI strain; test: Irwin test; assay type: in vivo, mouse
Protocol: A volume of 0.25 ml/20 g of body weight of a suspension of the compound of the invention in 5% gum arabic is administered to male mice of the NMRI strain by the i.p. route. The control animals received only the 5% suspension of gum arabic. Changes in behaviour, neurotoxicity symptoms, the diameter of the pupil and the rectal temperature are recorded in the standardized observation schedule according to Irwin in Psychopharmacologia, 1968, 13, 222-257. These observations were made at 15, 30, 60, 120 and 180 minutes after injection and 24 hours later. The compounds of the invention were studied at doses of 1024, 512 and 256 mg.kg^-1.

mice of the NMRI strain [3] = test: Antagonism of sleep induced by barbiturates; assay type: in vivo, mouse; settings: oral 2 and 8 mg/kg one hour before barbital 50 mg/kg i.p.; compared with a control group
Protocol: A compound of the invention is administered orally at doses of 2, 8 and 32 mg.kg^-1 to mice of the NMRI strain one hour before the intraperitoneal administration of barbital at a dose of 50 mg/kg.

NMRI mice = test: Potentiation of the effects of L-dopa; assay type: in vivo, mouse; settings: oral 8 and 32 mg/kg one hour before L-dopa 150 mg/kg i.p.
Protocol: A compound of the invention is adiministered orally at doses of 2, 8 and 32 mg/kg to NMRI mice one hour before the intraperitoneal administration of 150 mg/kg of L-dopa.

mice of the NMRI strain [4] = test: Test of passive avoidance: amnesia induced by diazepam; assay type: in vivo, mouse; settings: for dose with statistically significant effect / dose reducing diazepam amnesia: 60 minutes before Assay 1, piracetam by the i.p. route
Protocol: A volume of 0.25 ml/20 g of body weight of the compound of Example 1 (suspension in 5% gum arabic) is administered to mice of the NMRI strain or, in the case of the reference substance, an aqueous solution of piracetam or of diazepam (5% suspension in gum arabic) is administered. The control animals receive only injections of the vehicle (suspension of gum arabic). The test is carried out at indicated above for the induction of amnesia by the injection of scopolamine, with exception that this latter is replaced by diazepam. An injection of diazepam by the i.p. route 30 minutes before Assay 1 at a dose of 1 mg.kg^-1 reduces memory in a significant manner as is shown by the diminution of the reaction time in the mouse for crossing to the dark compartment during Assay 2.

[5] = i.p. 1024 mg.kg^-1, between 1 and 2 hours after administration

Row | Molecule | activity on GH levels (GH) | activity on prolactin levels (prolactin) | activity in the scopolamine amnesia test (mouse) | dose at which activity is significant / active dose, scopolamine amnesia test (mouse) | activity on TSH levels (TSH) | dose with significant/antagonistic effect on scopolamine amnesia (mouse) | dose with statistically significant effect / dose reducing diazepam amnesia (mice of the NMRI strain [4]) | other results
1 | 4-fluorocinnamoylglycyl-L-phenylalanine-L-prolinamide [Example 2] | no activity at all | no activity at all | active | 2 mg/kg | no activity at all |  |  | 
2 | NC(=O)[C@@H]1CCCN1C(=O)[C@H](Cc1ccccc1)NC(=O)CNC(=O)C=Cc1ccccc1 [Example 1, cinnamoyl-glycyl-L-phenylalanyl-L-prolinamide] |  |  | active | 2 mg/kg |  | 1 mg/kg | 4 mg/kg | solubility in water [1]: insoluble; Irwin observations versus control animals ([2]; i.p. 256 mg.kg^-1): no difference from the control animals; Irwin observations (hypothermia) ([2]; i.p. 512 mg.kg^-1): only a slight hypothermia; hypothermia ([2]; i.p. 1024 mg.kg^-1): hypothermia (2 mice/3); ptosis ([2]; i.p. 1024 mg.kg^-1): moderate ptosis (3 mice/3); excitation [2, 5]: excitation (1 mouse/3); sedation [2, 5]: slight sedation (1 mouse/3); duration of sleep (mice of the NMRI strain [3]): significantly diminishes the duration of sleep; prolactin levels (prolactin; 2, 8 or 32 mg/kg IP, dose dependent): slightly increased; antagonism of the effects of scopolamine (Assay 2) (mouse; i.p. 60 minutes before Assay 1, doses of 1, 4 and 16 mg/kg): antagonizes the effects of scopolamine; behavioural changes with L-dopa (NMRI mice): induces behavioural changes in the treated animals such as rapid running and jumping; TSH levels (TSH; 8 mg/kg IP): very slightly increased; antagonism of the effect of diazepam (Assay 2) (mice of the NMRI strain [4]; doses of 0.25, l and 4 mg.kg^-1, 60 minutes before Assay 1, diazepam 1 mg.kg^-1 i.p.): antagonizes the effect of diazepam in a dose-dependent manner
3 | NC(=O)[C@@H]1CCCN1C(=O)[C@H](Cc1ccccc1)NC(=O)CNC(=O)C=Cc1ccc2c(c1)OCO2 [Example 3, 3,4-methylenedioxycinnamoyl-glycyl-L-phenylalanyl-L-prolinamide] | no activity at all | no activity at all | active | 2 mg/kg | no activity at all |  |  | 
4 | NC(=O)[C@@H]1CCCN1C(=O)[C@H](Cc1ccccc1)NC(=O)CNC(=O)c1ccccc1 [Example 6, benzoyl-glycyl-L-phenylalanyl-L-prolinamide] (Bz-Gly-Phe-Pro-NH2) |  |  | active | 2 mg/kg |  |  |  | 
5 | NC(=O)[C@@H]1CCCN1C(=O)[C@H](Cc1ccccc1)NC(=O)CNC(=O)Cc1ccccc1 [Example 7, phenylacetyl-glycyl-L-phenylalanyl-L-prolinamide] (PhAc-Gly-Phe-Pro-NH2) |  |  | active | 2 mg/kg |  |  |  | 
6 | NC(=O)CN1CCCC1=O [piracetam, reference compound] |  |  |  | 2048 mg/kg |  | 512 mg/kg | 512 mg/kg | latent periods for crossing into the dark compartment or for escaping from it during Assay 1 (mouse; i.p. or oral route 60 mn before the assay, Assay 1): does not produce any effect
